Assay results taken from patent US12522595B2, “Bicyclic ether O-glycoprotein-2-acetamido-2-deoxy-3-D-glucopyranosidase inhibitors” (BIOGEN MA INC., priority 2019, dated 2026).

What follows are compounds tested against T1, Recombinant full length human OGA enzyme (Homo sapiens, UniProt O60502) (assay: OGA enzyme inhibition biochemical assay). Conditions: 1 nM OGA, 100 μM 4-MUGlcNAc (Km), pH 6.4, 90 minutes at room temperature, 10-point dose-response from 20 μM.
T1 construct: Recombinant full length human OGA enzyme was purchased from Origene; purchased Origene
T1 sequence (O60502 1-916): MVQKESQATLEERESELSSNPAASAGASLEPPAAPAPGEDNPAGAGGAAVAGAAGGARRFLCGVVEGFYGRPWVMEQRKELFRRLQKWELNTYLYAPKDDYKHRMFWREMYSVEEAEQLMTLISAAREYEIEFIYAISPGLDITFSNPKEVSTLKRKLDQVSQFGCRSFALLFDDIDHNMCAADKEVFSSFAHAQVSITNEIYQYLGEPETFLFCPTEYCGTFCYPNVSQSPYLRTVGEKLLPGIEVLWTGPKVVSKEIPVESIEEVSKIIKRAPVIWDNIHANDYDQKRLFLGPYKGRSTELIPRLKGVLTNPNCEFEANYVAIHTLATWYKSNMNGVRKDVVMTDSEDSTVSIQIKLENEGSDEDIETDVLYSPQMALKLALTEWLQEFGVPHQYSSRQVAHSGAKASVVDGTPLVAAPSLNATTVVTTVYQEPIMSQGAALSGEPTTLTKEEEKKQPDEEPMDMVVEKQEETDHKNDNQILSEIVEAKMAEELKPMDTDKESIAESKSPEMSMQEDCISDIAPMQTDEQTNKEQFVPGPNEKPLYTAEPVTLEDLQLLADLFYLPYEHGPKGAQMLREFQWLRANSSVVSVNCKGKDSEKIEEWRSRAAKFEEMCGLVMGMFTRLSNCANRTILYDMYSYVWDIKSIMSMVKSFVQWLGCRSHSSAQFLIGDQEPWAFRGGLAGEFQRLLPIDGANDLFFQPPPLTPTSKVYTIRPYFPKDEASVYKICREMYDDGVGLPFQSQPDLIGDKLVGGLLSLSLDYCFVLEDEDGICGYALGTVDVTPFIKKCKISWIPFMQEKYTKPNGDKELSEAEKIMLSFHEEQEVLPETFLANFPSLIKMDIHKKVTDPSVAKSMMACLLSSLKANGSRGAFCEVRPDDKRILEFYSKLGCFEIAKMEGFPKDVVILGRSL
Summary of the method: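 1 nM OGA with 100 μM 4-MUGlcNAc (Km) in McIlvaine buffer pH 6.4, 0.01% BSA, 90 min at room temperature; quenched with 3M glycine pH 10, fluorescence Ex 355/Em 460 nm. 10-point, 4-fold dilutions from 20 μM; 4-parameter variable-slope fit.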

Structure (SMILES)	IC50 [nM]
CC(=O)Nc1ncc(CN2C[C@H](Oc3ncnc4cc(F)c(F)cc34)C[C@@H]2C)s1 [Example 35, N-(5-(((2S,4R)-4-((6,7-difluoroquinazolin-4-yl)oxy)-2-methylpyrrolidin-1-yl)methyl)thiazol-2-yl)acetamide]	110
CC(=O)Nc1ncc(CN2C[C@H](Oc3ccnc4ccccc34)C[C@@H]2C)s1 [Example 19, N-(5-(((2S,4R)-2-methyl-4-(quinolin-4-yloxy)pyrrolidin-1-yl)methyl)thiazol-2-yl)acetamide]	1.3
CC(=O)Nc1nc(F)c(CN2C[C@H](Oc3ccnc4ccnn34)C[C@@H]2C)s1 [Example 104, N-(4-fluoro-5-(((2S,4R)-2-methyl-4-(pyrazolo[1,5-a]pyrimidin-7-yloxy)pyrrolidin-1-yl)methyl)thiazol-2-yl)acetamide]	3.8
CC(=O)Nc1ncc(CN2C[C@H](Oc3nccn4nc(C(F)(F)F)cc34)C[C@@H]2C)s1 [Example 28, N-(5-(((2S,4R)-2-methyl-4-((2-(trifluoromethyl)pyrazolo[1,5-a]pyrazin-4-yl)oxy)pyrrolidin-1-yl)methyl)thiazol-2-yl)acetamide]	5.4
CC(=O)Nc1nc(F)c(CN2C[C@H](Oc3nccc4nccnc34)C[C@@H]2C)s1 [Example 115, N-(4-fluoro-5-(((2S,4R)-2-methyl-4-(pyrido[3,4-b]pyrazin-5-yloxy)pyrrolidin-1-yl)methyl)thiazol-2-yl)acetamide]	3.8
CC(=O)Nc1ncc(CN2C[C@H](Oc3ccc4cccnc4n3)C[C@@H]2C)s1 [Example 81, N-(5-(((2S,4R)-4-((1,8-naphthyridin-2-yl)oxy)-2-methylpyrrolidin-1-yl)methyl)thiazol-2-yl)acetamide]	< 1
CCc1cc2c(O[C@@H]3C[C@H](C)N(Cc4cnc(NC(C)=O)s4)C3)nccc2o1 [Example 15, N-(5-(((2S,4R)-4-((2-ethylfuro[3,2-c]pyridin-4-yl)oxy)-2-methylpyrrolidin-1-yl)methyl)thiazol-2-yl)acetamide]	< 1
CC(=O)Nc1ncc(CN2C[C@H](Oc3nc4c(cc3C#N)CCCC4)C[C@@H]2C)s1 [Example 32, N-(5-(((2S,4R)-4-((3-cyano-5,6,7,8-tetrahydroquinolin-2-yl)oxy)-2-methylpyrrolidin-1-yl)methyl)thiazol-2-yl)acetamide]	11
CC(=O)Nc1ncc(CN2C[C@H](Oc3ccnc4ccsc34)C[C@@H]2C)s1 [Example 5, N-(5-(((2S,4R)-2-methyl-4-(thieno[3,2-b]pyridin-7-yloxy)pyrrolidin-1-yl)methyl)thiazol-2-yl)acetamide]	< 1
CC(=O)Nc1nc(F)c(CN2C[C@H](Oc3cnc4c(ccn4C)n3)C[C@@H]2C)s1 [Example 109, N-(4-fluoro-5-(((2S,4R)-2-methyl-4-((5-methyl-5H-pyrrolo[2,3-b]pyrazin-2-yl)oxy)pyrrolidin-1-yl)methyl)thiazol-2-yl)acetamide]	< 1
CC(=O)Nc1nc(F)c(CN2C[C@H](Oc3nc4ncccc4o3)C[C@@H]2C)s1 [Example 158, N-(4-fluoro-5-(((2S,4R)-2-methyl-4-(oxazolo[4,5-b]pyridin-2-yloxy)pyrrolidin-1-yl)methyl)thiazol-2-yl)acetamide]	< 1
CC(=O)Nc1nc(F)c(CN2C[C@H](Oc3cccn4nccc34)C[C@@H]2C)s1 [Example 141, N-(4-fluoro-5-(((2S,4R)-2-methyl-4-(pyrazolo[1,5-a]pyridin-4-yloxy)pyrrolidin-1-yl)methyl)thiazol-2-yl)acetamide]	< 1
CC(=O)Nc1nc(F)c(CN2C[C@H](Oc3nccn4cc(C)nc34)C[C@@H]2C)s1 [Example 103, N-(4-fluoro-5-(((2S,4R)-2-methyl-4-((2-methylimidazo[1,2-a]pyrazin-8-yl)oxy)pyrrolidin-1-yl)methyl)thiazol-2-yl)acetamide]	< 1
CC(=O)Nc1ncc(CN2C[C@H](Oc3nccc4sccc34)C[C@@H]2C)s1 [Example 24, N-(5-(((2S,4R)-2-methyl-4-(thieno[3,2-c]pyridin-4-yloxy)pyrrolidin-1-yl)methyl)thiazol-2-yl)acetamide]	2.5
CC(=O)Nc1nc(F)c(CN2C[C@H](Oc3ccc4c(nnn4C)n3)C[C@@H]2C)s1 [Example 152, N-(4-fluoro-5-(((2S,4R)-2-methyl-4-((1-methyl-1H-[1,2,3]triazolo[4,5-b]pyridin-5-yl)oxy)pyrrolidin-1-yl)methyl)thiazol-2-yl)acetamide]	< 1
CC(=O)Nc1ncc(CN2C[C@H](Oc3cc4c(Cl)ccnc4cc3F)C[C@@H]2C)s1 [Example 7, N-(5-(((2S,4R)-4-((4-chloro-7-fluoroquinolin-6-yl)oxy)-2-methylpyrrolidin-1-yl)methyl)thiazol-2-yl)acetamide]	< 1
COc1nc(O[C@@H]2C[C@H](C)N(Cc3sc(NC(C)=O)nc3F)C2)cc2cc(F)ccc12 [Example 131, N-(4-fluoro-5-(((2S,4R)-4-((6-fluoro-1-methoxyisoquinolin-3-yl)oxy)-2-methylpyrrolidin-1-yl)methyl)thiazol-2-yl)acetamide]	< 1

The remaining lines, values ahead:

IC50 [nM]	Structure (SMILES)
< 1	CC(=O)Nc1nc(F)c(CN2C[C@H](Oc3cnc4nncn4c3)C[C@@H]2C)s1 [Example 165, N-(5-(((2S,4R)-4-([1,2,4]triazolo[4,3-a]pyrimidin-6-yloxy)-2-methylpyrrolidin-1-yl)methyl)-4-fluorothiazol-2-yl)acetamide]
< 1	CC(=O)Nc1ncc(CN2C[C@H](Oc3cc4nccn4cn3)C[C@@H]2C)s1 [Example 39, N-(5-(((2S,4R)-4-(imidazo[1,2-c]pyrimidin-7-yloxy)-2-methylpyrrolidin-1-yl)methyl)thiazol-2-yl)acetamide]
< 1	CC(=O)Nc1nc(F)c(CN2C[C@H](Oc3ccc4cccnc4n3)C[C@@H]2C)s1 [Example 82, N-(5-(((2S,4R)-4-((1,8-naphthyridin-2-yl)oxy)-2-methylpyrrolidin-1-yl)methyl)-4-fluorothiazol-2-yl)acetamide]
< 1	CC(=O)Nc1ncc(CN2C[C@H](Oc3cc4cn(C)nc4cn3)C[C@@H]2C)s1 [Example 87, N-(5-(((2S,4R)-2-methyl-4-((2-methyl-2H-pyrazolo[3,4-c]pyridin-5-yl)oxy)pyrrolidin-1-yl)methyl)thiazol-2-yl)acetamide]
< 1	CC(=O)Nc1nc(F)c(CN2C[C@H](Oc3ccc4cnccc4n3)C[C@@H]2C)s1 [Example 120, N-(5-(((2S,4R)-4-((1,6-naphthyridin-2-yl)oxy)-2-methylpyrrolidin-1-yl)methyl)-4-fluorothiazol-2-yl)acetamide]
< 1	CC(=O)Nc1ncc(CN2C[C@H](Oc3ncc4c(C)csc4n3)C[C@@H]2C)s1 [Example 3, N-(5-(((2S,4R)-2-methyl-4-((5-methylthieno[2,3-d]pyrimidin-2-yl)oxy)pyrrolidin-1-yl)methyl)thiazol-2-yl)acetamide]
< 1	CC(=O)Nc1nc(F)c(CN2C[C@H](Oc3cccc4cn(C)nc34)C[C@@H]2C)s1 [Example 161, N-(4-fluoro-5-(((2S,4R)-2-methyl-4-((2-methyl-2H-indazol-7-yl)oxy)pyrrolidin-1-yl)methyl)thiazol-2-yl)acetamide]
< 1	CC(=O)Nc1ncc(CN2C[C@H](Oc3cc4nc(C)cn4cn3)C[C@@H]2C)s1 [Example 40, N-(5-(((2S,4R)-2-methyl-4-((2-methylimidazo[1,2-c]pyrimidin-7-yl)oxy)pyrrolidin-1-yl)methyl)thiazol-2-yl)acetamide]
